Results published in patent US20200360477A1, “INHALABLE FORMULATIONS FOR KINASE INHIBITION” (Aerovate Therapeutics, Inc., priority 2019, published 2020).
pKd: −log10 of the molar value. Read-outs that look alike come from different tables or passages of the source.

Experiments:
[1] = target: DDR1 (Homo sapiens, UniProt Q08345); experiment: KINOMEscan competition binding assay
[2] = target: T1, ABL-1-nonphosphorolated (Homo sapiens, UniProt P00519); conditions: ABL1
[3] = target: T1, ABL-1-nonphosphorolated; experiment: biochemical; conditions: read-out: Compound Activity Remaining at 1 μM (%)
[4] = target: CSF1R (Homo sapiens, UniProt P07333); experiment: biochemical
[5] = target: FYN (Homo sapiens, UniProt P06241); experiment: KINOMEscan competition binding assay
[6] = target: T2, LYN (Homo sapiens, UniProt P07948); experiment: KINOMEscan competition binding assay
T2 construct: purchased Eurofins DiscoverX Corporation (KINOMEscan); host or cells: E. coli BL21-derived host (T7 phage) or HEK-293
T2 sequence (P07948 whole entry): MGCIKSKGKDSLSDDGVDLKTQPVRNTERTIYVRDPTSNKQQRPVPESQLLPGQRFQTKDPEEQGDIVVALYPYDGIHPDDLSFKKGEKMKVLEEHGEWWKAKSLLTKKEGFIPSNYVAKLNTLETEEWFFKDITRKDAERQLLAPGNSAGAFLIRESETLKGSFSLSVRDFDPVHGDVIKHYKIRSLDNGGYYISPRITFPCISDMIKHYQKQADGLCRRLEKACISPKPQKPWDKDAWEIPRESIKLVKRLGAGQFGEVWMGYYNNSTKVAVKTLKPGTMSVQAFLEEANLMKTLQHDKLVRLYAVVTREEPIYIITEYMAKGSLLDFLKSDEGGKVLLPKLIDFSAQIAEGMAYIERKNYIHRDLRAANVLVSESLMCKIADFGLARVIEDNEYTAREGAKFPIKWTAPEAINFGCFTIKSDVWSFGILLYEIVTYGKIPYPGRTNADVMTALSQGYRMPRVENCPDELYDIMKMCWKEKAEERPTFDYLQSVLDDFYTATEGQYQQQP
Description: (§1) The ligand-bound beads were blocked with excess biotin and washed with blocking buffer (SeaBlock (Pierce), 1% BSA, 0.05% Tween 20, 1 mM DTT) to remove unbound ligand and to reduce nonspecific binding. […] Kds were determined using an 11-point 3-fold compound dilution series with three DMSO control points.
(§2) Each was a final volume of 0.02 ml.

[7] = target: T3, DDR2 (Homo sapiens, UniProt Q16832); experiment: KINOMEscan competition binding assay
T3 construct: purchased Eurofins DiscoverX Corporation (KINOMEscan); host or cells: E. coli BL21-derived host (T7 phage) or HEK-293
T3 sequence (Q16832 22-855): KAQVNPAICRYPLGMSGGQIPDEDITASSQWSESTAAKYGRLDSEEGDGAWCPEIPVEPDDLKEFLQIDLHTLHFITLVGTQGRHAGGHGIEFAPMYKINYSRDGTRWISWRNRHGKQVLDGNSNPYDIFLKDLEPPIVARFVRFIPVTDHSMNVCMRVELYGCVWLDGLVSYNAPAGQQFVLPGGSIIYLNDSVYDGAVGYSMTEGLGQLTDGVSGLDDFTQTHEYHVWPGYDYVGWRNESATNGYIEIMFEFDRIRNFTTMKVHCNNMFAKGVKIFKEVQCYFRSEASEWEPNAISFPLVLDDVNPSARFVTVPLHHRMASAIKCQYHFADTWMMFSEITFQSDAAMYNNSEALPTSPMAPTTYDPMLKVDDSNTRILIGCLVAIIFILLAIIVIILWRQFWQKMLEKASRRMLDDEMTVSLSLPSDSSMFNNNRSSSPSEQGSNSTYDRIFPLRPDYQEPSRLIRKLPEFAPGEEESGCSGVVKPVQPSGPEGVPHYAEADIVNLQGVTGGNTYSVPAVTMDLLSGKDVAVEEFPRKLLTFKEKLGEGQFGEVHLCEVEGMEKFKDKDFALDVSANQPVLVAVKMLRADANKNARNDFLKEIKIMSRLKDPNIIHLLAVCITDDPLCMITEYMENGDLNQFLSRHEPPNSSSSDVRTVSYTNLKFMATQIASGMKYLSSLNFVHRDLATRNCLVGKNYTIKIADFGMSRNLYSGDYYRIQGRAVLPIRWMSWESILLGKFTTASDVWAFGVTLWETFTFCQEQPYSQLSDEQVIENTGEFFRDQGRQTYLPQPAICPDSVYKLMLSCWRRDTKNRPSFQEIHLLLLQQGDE
Description: as §1, §2

[8] = target: T4, RET (Homo sapiens, UniProt P07949); experiment: KINOMEscan competition binding assay
T4 construct: purchased Eurofins DiscoverX Corporation (KINOMEscan); host or cells: E. coli BL21-derived host (T7 phage) or HEK-293
T4 sequence (P07949 29-1114): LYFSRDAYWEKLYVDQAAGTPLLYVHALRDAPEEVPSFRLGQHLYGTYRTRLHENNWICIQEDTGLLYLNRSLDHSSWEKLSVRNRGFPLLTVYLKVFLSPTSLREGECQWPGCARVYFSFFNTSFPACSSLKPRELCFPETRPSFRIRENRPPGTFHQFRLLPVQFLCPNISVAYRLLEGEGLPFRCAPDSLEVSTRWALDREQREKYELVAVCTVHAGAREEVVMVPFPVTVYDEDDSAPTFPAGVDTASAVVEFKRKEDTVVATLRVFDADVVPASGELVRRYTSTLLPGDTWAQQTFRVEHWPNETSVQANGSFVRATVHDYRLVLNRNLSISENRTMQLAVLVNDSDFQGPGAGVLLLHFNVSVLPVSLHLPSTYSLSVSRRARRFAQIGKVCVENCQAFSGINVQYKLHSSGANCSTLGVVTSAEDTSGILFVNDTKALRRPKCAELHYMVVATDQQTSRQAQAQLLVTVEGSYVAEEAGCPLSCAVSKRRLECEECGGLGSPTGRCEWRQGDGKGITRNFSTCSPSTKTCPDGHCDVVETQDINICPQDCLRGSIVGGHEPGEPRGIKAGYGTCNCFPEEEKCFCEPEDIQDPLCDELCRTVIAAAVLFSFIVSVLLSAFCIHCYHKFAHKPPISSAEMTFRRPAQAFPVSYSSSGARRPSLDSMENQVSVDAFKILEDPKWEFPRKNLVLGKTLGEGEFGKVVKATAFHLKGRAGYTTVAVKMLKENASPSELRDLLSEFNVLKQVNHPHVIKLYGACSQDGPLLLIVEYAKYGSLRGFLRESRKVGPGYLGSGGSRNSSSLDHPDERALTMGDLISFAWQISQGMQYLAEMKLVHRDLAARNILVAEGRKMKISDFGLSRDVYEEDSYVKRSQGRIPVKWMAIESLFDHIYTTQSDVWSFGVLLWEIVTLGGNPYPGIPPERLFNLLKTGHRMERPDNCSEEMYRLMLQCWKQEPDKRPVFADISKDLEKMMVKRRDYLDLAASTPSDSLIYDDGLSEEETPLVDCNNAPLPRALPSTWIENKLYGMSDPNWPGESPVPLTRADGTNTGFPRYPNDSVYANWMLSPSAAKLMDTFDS
Description: as §1, §2

[9] = target: T5, PDGFR-α (Homo sapiens, UniProt P16234); experiment: KINOMEscan competition binding assay
T5 construct: purchased Eurofins DiscoverX Corporation (KINOMEscan); host or cells: E. coli BL21-derived host (T7 phage) or HEK-293
T5 sequence (P16234 24-1089): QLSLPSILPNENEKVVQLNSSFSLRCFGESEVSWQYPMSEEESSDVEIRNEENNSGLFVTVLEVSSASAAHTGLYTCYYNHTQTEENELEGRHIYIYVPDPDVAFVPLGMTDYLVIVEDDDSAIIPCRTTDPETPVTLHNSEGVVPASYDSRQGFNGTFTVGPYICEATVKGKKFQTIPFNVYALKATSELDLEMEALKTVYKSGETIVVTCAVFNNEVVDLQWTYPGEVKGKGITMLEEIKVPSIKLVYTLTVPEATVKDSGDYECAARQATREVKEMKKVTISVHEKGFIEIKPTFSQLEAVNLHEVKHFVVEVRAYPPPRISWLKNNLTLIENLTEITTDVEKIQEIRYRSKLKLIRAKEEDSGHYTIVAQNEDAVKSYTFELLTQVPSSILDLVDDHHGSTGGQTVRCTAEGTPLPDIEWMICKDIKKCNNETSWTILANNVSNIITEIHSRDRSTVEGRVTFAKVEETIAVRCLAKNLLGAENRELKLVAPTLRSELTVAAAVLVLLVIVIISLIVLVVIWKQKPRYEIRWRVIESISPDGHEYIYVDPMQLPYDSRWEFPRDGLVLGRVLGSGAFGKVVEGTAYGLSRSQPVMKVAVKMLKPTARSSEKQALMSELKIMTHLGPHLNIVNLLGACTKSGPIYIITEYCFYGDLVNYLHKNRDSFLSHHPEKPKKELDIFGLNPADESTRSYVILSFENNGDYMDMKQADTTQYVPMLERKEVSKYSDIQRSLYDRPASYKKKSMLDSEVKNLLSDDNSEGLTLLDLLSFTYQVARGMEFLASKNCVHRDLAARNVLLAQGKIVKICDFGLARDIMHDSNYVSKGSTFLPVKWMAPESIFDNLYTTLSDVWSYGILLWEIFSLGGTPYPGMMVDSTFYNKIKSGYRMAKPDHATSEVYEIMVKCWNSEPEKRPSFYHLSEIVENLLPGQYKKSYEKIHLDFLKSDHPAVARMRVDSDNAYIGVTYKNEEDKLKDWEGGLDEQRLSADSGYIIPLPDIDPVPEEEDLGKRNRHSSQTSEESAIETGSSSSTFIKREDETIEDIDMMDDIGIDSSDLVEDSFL
Description: as §1, §2

[10] = target: T6, VEGFR2 (Homo sapiens, UniProt P35968); experiment: KINOMEscan competition binding assay
T6 construct: purchased Eurofins DiscoverX Corporation (KINOMEscan); host or cells: E. coli BL21-derived host (T7 phage) or HEK-293
T6 sequence (P35968 20-1356): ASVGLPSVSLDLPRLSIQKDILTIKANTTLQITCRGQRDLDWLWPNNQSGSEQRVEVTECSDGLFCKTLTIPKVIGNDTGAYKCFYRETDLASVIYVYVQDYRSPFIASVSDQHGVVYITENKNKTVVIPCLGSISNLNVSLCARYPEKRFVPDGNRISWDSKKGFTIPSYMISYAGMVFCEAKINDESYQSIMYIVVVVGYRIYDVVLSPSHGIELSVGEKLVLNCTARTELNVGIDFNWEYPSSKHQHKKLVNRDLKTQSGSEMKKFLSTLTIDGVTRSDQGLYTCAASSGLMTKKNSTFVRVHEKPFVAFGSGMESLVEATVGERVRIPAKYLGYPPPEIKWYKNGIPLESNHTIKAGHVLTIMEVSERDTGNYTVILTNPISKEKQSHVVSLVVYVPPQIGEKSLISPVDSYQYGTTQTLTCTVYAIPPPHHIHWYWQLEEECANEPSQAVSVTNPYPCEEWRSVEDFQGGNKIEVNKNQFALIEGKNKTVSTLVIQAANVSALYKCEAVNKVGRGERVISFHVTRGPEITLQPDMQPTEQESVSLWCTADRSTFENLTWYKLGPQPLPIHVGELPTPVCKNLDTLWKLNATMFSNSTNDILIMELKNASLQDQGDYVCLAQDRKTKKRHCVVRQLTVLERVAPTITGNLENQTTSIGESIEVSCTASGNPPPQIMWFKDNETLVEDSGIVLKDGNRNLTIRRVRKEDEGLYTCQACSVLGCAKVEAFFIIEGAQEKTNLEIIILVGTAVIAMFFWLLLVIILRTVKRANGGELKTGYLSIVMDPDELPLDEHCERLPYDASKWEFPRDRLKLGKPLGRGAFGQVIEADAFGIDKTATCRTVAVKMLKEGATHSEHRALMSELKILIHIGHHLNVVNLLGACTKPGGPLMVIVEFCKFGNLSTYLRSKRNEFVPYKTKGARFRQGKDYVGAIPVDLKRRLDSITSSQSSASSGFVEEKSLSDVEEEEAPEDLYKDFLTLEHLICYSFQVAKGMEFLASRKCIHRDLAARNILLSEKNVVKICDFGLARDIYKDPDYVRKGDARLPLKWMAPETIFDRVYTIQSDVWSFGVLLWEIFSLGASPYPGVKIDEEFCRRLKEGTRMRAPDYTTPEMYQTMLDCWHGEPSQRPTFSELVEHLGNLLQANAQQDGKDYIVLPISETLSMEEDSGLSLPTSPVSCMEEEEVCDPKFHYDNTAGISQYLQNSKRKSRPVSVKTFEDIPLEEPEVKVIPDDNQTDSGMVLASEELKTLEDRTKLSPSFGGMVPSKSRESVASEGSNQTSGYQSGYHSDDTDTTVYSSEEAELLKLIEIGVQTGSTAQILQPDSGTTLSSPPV
Description: as §1, §2

[11] = target: T7, PIK4CB (Homo sapiens, UniProt Q9UBF8); experiment: KINOMEscan competition binding assay
T7 construct: purchased Eurofins DiscoverX Corporation (KINOMEscan); host or cells: E. coli BL21-derived host (T7 phage) or HEK-293
Description: as §1, §2

[12] = target: T8, FGR (Homo sapiens, UniProt P09769); experiment: KINOMEscan competition binding assay
T8 construct: purchased Eurofins DiscoverX Corporation (KINOMEscan); host or cells: E. coli BL21-derived host (T7 phage) or HEK-293
Description: as §1, §2

[13] = target: T9, PDGFR-β (Homo sapiens, UniProt P09619); experiment: KINOMEscan competition binding assay
T9 construct: purchased Eurofins DiscoverX Corporation (KINOMEscan); host or cells: E. coli BL21-derived host (T7 phage) or HEK-293
Description: as §1, §2

[14] = target: KIT (Homo sapiens, UniProt P10721); experiment: KINOMEscan competition binding assay
Chain of KIT (P10721 26-976): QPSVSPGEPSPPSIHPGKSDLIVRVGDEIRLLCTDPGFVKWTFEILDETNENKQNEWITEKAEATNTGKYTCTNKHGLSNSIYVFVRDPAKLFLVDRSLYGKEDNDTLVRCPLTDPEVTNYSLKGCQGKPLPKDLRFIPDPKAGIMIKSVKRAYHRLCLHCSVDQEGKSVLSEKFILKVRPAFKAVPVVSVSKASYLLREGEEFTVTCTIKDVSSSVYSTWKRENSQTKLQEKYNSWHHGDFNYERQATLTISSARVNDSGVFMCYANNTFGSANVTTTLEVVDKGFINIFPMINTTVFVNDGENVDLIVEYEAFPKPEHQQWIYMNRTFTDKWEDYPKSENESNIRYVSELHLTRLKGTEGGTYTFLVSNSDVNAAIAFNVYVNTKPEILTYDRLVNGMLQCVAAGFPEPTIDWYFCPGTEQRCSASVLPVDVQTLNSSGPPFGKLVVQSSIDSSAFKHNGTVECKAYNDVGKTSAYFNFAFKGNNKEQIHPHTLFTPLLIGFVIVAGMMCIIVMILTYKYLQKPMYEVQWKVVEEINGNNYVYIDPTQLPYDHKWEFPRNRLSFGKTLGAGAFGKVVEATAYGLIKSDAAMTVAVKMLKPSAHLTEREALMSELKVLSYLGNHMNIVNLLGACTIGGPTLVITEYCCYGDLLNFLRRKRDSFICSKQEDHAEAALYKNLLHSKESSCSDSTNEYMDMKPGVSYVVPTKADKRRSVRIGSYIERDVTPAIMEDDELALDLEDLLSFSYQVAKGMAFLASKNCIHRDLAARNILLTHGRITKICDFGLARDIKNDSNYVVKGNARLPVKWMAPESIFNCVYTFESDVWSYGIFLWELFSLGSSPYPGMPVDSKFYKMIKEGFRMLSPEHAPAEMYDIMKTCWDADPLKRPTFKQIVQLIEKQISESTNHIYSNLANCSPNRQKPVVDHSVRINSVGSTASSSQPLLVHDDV

[15] = target: FRK (Homo sapiens, UniProt P42685); experiment: KINOMEscan competition binding assay
[16] = target: SRC (Homo sapiens, UniProt P12931); experiment: KINOMEscan competition binding assay
[17] = target: LCK (Homo sapiens, UniProt P06239); experiment: KINOMEscan competition binding assay
[18] = target: HCK (Homo sapiens, UniProt P08631); experiment: KINOMEscan competition binding assay
[19] = target: FLT4 (Homo sapiens, UniProt P35916); experiment: KINOMEscan competition binding assay
[20] = target: T10, phosphatidylinositol 5-phosphate 4-kinase type-2 gamma (PI42C) (Homo sapiens, UniProt Q8TBX8); experiment: KINOMEscan competition binding assay
T10 construct: purchased Eurofins DiscoverX Corporation (KINOMEscan); host or cells: E. coli BL21-derived host (T7 phage) or HEK-293
T10 sequence (Q8TBX8 1-421): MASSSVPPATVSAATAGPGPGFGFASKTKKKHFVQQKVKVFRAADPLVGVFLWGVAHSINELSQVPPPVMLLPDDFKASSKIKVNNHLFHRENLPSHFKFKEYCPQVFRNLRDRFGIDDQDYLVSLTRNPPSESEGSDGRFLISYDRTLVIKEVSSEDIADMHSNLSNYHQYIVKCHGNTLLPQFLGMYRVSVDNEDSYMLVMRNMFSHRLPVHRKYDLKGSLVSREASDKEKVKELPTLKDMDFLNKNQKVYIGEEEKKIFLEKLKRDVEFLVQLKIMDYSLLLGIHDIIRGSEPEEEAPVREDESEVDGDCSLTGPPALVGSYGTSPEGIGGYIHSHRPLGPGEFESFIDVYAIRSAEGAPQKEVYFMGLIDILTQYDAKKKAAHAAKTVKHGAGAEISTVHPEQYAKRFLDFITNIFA
Description: The ligand-bound beads were blocked with excess biotin and washed with blocking buffer (SeaBlock (Pierce), 1% BSA, 0.05% Tween 20, 1 mM DTT) to remove unbound ligand and to reduce nonspecific binding. […] Test compounds were prepared as 111× stocks in 100% DMSO. Kds were determined using an 11-point 3-fold compound dilution series with three DMSO control points.
as §2

[21] = read-out: Compound Activity Remaining at 1 μM (%)

COc1ccc(-c2cncc(N[C@@H](C)c3cccc(NC(=O)c4cncc(C)c4)c3)n2)cc1OC [Compound B]
pKd [1]: 8.46 | remaining binding at 1 µM [1, 21]: 0.2% | kinase found to be inhibited [2]: inhibited | remaining activity at 1 µM [3]: 3.3% | pKd [4]: 8.21 | remaining activity at 1 µM [4, 21]: 0.7% | pKd [5]: 7.26 | remaining binding at 1 µM [5, 21]: 9.7% | pKd [6]: 7.62 | remaining binding at 1 µM ([6]; 1 μM compound): 7.3% | pKd [7]: 7.72 | remaining binding at 1 µM ([7]; 1 μM compound): 1.8% | pKd [8]: 7.72 | remaining binding at 1 µM ([8]; 1 μM compound): 3.9% | pKd [9]: 8.40 | remaining binding at 1 µM ([9]; 1 μM compound): 0.35% | pKd [10]: 7.82 | remaining binding at 1 µM ([10]; 1 μM compound): 0.25% | pKd [11]: 6.82 | remaining binding at 1 µM ([11]; 1 μM compound): 3.8% | pKd [12]: 7.04 | remaining binding at 1 µM ([12]; 1 μM compound): 21% | pKd [13]: 9.09 | remaining binding at 1 µM ([13]; 1 μM compound): 0% | pKd [14]: 8.33 | remaining binding at 1 µM [14, 21]: 0% | pKd [15]: 7.96 | remaining binding at 1 µM [15, 21]: 5.3% | pKd [16]: 6.89 | remaining binding at 1 µM [16, 21]: 6.4% | pKd [17]: 7.66 | remaining binding at 1 µM [17, 21]: 1.1% | pKd [18]: 7.44 | remaining binding at 1 µM [18, 21]: 3.3% | pKd [19]: 7.74 | remaining binding at 1 µM [19, 21]: 12%

imatinib [Compound A, reference compound]
Compound Activity Remaining at 1 μM (%) ([6]; 1 μM compound): 30% | Compound Activity Remaining at 1 μM (%) ([7]; 1 μM compound): 0.8% | pKd [8]: < 5.00 | Compound Activity Remaining at 1 μM (%) ([8]; 1 μM compound): 98% | Compound Activity Remaining at 1 μM (%) ([9]; 1 μM compound): 0.95% | Compound Activity Remaining at 1 μM (%) ([10]; 1 μM compound): 70% | Compound Activity Remaining at 1 μM (%) ([11]; 1 μM compound): 59% | Compound Activity Remaining at 1 μM (%) ([12]; 1 μM compound): 70% | Compound Activity Remaining at 1 μM (%) ([13]; 1 μM compound): 0.15% | Compound Activity Remaining at 1 μM (%) ([14]; KIT, 1 μM compound): 0.5% | kinase found to be inhibited [20]: inhibited | pKd ([19]; FLT4): < 5.00 | Compound Activity Remaining at 1 μM (%) ([19]; FLT4, 1 μM compound): 87%
